Experiments:
Type in all cases: biochemical
PacW = molecular target: T1, PacW (Streptomyces coeruleorubidus, UniProt F5BFC7); assay: ATP-[…]PPi exchange; conditions: adenylation, DL mixture used
T1 sequence (F5BFC7 1-507): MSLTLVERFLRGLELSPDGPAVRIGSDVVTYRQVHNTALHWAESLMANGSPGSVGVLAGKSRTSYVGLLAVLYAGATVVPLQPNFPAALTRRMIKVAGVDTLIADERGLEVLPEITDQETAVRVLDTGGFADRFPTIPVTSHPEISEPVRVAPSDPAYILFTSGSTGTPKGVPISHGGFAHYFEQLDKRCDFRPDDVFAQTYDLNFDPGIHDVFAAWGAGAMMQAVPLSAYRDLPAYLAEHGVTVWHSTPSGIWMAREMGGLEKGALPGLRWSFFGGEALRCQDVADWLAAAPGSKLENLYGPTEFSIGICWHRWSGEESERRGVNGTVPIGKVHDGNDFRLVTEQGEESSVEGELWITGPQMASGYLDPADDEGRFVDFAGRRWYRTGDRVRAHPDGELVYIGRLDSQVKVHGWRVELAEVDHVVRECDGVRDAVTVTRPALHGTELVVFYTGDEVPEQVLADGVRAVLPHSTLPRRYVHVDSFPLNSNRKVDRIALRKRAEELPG

PacP = molecular target: T2, PacP (Streptomyces coeruleorubidus, UniProt E2EKP8); assay: ATP-[…]PPi exchange; conditions: adenylation
T2 sequence (E2EKP8 1-848): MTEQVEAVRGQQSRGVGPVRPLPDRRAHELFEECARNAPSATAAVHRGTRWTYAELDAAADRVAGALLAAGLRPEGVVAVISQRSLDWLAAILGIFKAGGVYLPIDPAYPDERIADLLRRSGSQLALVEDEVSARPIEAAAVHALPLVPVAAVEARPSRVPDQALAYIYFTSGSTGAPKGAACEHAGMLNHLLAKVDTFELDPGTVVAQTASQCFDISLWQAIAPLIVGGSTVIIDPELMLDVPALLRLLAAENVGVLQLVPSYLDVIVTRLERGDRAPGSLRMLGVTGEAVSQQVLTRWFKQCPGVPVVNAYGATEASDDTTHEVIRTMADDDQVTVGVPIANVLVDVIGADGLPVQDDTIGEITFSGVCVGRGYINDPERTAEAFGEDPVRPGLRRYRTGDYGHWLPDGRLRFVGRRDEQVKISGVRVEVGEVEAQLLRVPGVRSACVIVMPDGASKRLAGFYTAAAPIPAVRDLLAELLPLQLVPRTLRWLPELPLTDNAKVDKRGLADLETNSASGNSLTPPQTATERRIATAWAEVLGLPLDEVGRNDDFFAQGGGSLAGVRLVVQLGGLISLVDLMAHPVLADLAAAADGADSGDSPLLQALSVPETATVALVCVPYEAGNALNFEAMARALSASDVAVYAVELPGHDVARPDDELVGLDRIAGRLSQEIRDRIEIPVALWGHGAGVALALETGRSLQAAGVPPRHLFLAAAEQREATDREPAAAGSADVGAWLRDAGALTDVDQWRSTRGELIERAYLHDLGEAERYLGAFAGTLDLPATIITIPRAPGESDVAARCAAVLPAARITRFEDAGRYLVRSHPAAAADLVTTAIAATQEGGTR

PacU = molecular target: T3, PacU (Streptomyces coeruleorubidus, UniProt E2EKQ3); assay: ATP-[…]PPi exchange; conditions: adenylation
T3 sequence (E2EKQ3 1-507): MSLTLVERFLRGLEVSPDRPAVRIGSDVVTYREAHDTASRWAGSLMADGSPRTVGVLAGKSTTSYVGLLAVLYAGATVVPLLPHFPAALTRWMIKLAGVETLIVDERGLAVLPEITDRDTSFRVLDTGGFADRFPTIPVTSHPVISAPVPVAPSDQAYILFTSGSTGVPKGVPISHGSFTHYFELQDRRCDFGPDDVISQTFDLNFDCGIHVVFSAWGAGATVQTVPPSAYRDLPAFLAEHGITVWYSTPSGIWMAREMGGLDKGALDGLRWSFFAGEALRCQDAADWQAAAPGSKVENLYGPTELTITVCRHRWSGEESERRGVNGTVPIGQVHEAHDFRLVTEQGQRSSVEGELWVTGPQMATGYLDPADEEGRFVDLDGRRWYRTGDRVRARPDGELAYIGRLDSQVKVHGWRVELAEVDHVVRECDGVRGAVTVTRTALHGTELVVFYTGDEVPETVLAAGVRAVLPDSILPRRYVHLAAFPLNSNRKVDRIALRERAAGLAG

PacV = PacV (Streptomyces coeruleorubidus, UniProt E2EKQ4); assay: SDS-PAGE autoradiography of […]-methyl transfer; conditions: methyl acceptor DABA tethered to holo-PacP; labelled compound
Sequence of PacV (E2EKQ4 1-250): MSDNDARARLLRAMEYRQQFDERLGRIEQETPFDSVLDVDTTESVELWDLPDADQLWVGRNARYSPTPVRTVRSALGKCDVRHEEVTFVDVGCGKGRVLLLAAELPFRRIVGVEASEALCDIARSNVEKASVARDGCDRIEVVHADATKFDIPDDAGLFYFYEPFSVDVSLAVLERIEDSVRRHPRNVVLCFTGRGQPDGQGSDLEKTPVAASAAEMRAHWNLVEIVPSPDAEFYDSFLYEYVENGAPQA

SMILES: NC(Cc1cccc(O)c1)C(=O)O (racemic) [m-Tyr]
- ATP-[32P]PPi exchange (PacW): demonstrated a strong preference for the activation of m-Tyr over other aromatic amino acids

SMILES: C[C@H](N)[C@H](N)C(=O)O [2S,3S-DABA]
- ATP-[32P]PPi exchange (PacP): PacP exhibited a preference toward reversible formation of 2S,3S-DABA-AMP

SMILES: C[C@H](N)C(=O)O [L-Ala]
- ATP-[32P]PPi exchange (PacU): exhibited a strong preference toward reversible formation of L-Ala-AMP

SMILES: C[S+](CC[C@H](N)C(=O)O)C[C@H]1O[C@@H](n2cnc3c(N)ncnc32)[C@H](O)[C@@H]1O (stereo partly shown) [S-adenosylmethionine]
- SDS-PAGE autoradiography of 14C-methyl transfer (PacV): PacV indeed transferred the methyl group from S-adenosylmethionine (SAM) to holo-PacP

From publication PMC3071879 (Journal of the American Chemical Society, 2011)
